Patent publication US12496301B2, “Use of androgen receptor degrader for the treatment of spinal and bulbar muscular atrophy” (Arvinas Operations, Inc., priority 2023, dated 2025)
“Also recorded” adds a separate entry of the source.

Columns and labels:
human AR100Q [1] = assay: hAR100Q (polyQ-AR) degradation in muscle of hAR100Q mice, capillary immunoassay; type: in vivo
Experimental: (§1) Mouse endogenous AR, human AR100Q, and high molecular weight hAR100Q from hAR100Q mice were quantified by capillary immunoassay. Tissue lysates were prepared as described above using antibodies to AR and resolved by capillary electrophoresis (ProteinSimple). High molecular weight AR was quantified as the area under the curve (AUC) from 300 to 600 kDa.
(§2) A parallel cohort of hAR100Q mice was maintained in order to evaluate AR degradation at the 11-week timepoint. hAR100Q mice in this tissue cohort were fed chow identical to the mice that underwent muscle strength and endurance tests and were euthanized at 11-weeks of age.

human AR100Q [2] = biological target: T1, human AR100Q (Homo sapiens, UniProt P10275, INS80QQQQQQQQQQQQQQQQQQQQQQQQQQQQQQQQQQQQQQQQQQQQQQQQQQQQQQQQQQQQQQQQQQQQQQQQQQQQQ); assay: as above; type: in vivo
T1 construct: full-length human AR harboring 100 CAG repeats in exon 1 (hAR100Q); from tissue; host or cells: LABC and quadriceps muscle of transgenic hAR100Q mice (C57BL/6J background, pCAGGS promoter)
T1 sequence (P10275 with tags, fused parts or gaps with the stated changes): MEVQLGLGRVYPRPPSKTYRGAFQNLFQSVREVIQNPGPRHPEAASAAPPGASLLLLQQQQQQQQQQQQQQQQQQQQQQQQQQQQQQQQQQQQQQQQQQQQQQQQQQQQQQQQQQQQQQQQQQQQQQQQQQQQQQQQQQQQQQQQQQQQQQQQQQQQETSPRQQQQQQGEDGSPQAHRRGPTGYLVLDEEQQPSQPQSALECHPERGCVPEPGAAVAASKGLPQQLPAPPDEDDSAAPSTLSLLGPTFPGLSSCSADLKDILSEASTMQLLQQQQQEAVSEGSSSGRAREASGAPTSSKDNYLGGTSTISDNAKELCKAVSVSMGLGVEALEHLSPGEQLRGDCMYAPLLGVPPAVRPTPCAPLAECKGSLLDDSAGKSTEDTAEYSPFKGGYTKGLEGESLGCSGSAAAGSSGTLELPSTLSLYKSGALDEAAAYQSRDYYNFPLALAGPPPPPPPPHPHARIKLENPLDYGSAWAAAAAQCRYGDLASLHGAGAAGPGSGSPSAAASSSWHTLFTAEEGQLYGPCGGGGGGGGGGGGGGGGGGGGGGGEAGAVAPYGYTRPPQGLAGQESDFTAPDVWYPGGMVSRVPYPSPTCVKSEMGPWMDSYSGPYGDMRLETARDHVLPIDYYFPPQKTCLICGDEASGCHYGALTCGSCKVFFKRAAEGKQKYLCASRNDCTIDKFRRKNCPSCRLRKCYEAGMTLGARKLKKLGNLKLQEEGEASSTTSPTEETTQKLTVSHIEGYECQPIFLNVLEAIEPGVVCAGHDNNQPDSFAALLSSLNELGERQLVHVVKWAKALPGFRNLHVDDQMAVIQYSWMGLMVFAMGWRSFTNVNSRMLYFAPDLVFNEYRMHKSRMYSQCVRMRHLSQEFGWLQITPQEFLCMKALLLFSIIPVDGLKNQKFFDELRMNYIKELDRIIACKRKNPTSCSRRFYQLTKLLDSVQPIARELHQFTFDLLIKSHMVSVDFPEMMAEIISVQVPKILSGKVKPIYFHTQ
Experimental: as §1, §2

polyQ-AR = polyQ-AR degradation in SBMA patient hiPSC-derived myotubes, capillary immunoassay; type: cell-based, human; conditions: two donor hiPSC lines, 24 hours
Experimental: Lysates for hiPSC-derived myotubes were prepared in lysis buffer ([…], 50 mM sodium chloride, 1% NP-40, 1% SDS) supplemented with Halt Protease Inhibitor (78437 Thermo Fisher Scientific), Benzonase, and MgCl2 (1 mM final concentration). The lysates were cleared by centrifugation at 4° C. and supernatants were quantified using the BIO-RAD DC protein assay (5000112 BIO-RAD). The AR and protein levels were quantified by an automated capillary immunoassay experiment (ProteinSimple). The AR and Myosin Protein levels were quantified and normalized to total protein.
Control and SBMA hiPSCs were differentiated into myotubes as previously described (Caron, L. et al. 2016, STEM CELLS Transl. Med. 5, 1145-1161) using the skeletal muscle differentiation kit (Amsbio). hiPSCs were dissociated to single cells using Accutase and plated on Geltrex-coated 10 cm culture plates at a density of 200,000 cells per plate with SBMA hiPSCs in skeletal muscle induction media (SKM01, AMSBIO). Media changes were performed every second day until cells were confluent (˜7 days). The resulting myogenic precursor cells were then dissociated to single cells using Accutase and replated on Matrigel-coated 24-well tissue culture plate with 500 μL of cells at 35,000 cells per mL in skeletal myoblast media (SKM02, AMSBIO). Half media changes were performed every second day until myoblasts reached confluence (˜7 days). The media was then switched to myotube medium (SKM03, ASMBIO). Media changes every second day until myotube formation was confirmed by microscopy. Myotubes were treated on day 20 of differentiation (6 days' worth of SKM03 media) with compounds diluted in DMSO for a final DMSO concentration of 0.01% in SKM03 media. The cells were lysed 24 hours later in Pierce RIPA buffer (Cat. No. 89900, ThermoFisher) supplemented with 1× Halt protease inhibitor cocktail (Cat. No. 87786, ThermoFisher), 1 mM MgCl2, and 1 μL Benzonase Nuclease. AR protein was measured by capillary electrophoresis. […]

CC(C)N(CC1CCN(c2ncc(C(=O)N[C@H]3C(C)(C)[C@H](Oc4ccc(C#N)c(Cl)c4)C3(C)C)cn2)CC1)[C@H]1C[C@H](Oc2ccc3c(c2)C(=O)N(C2CCC(=O)NC2=O)C3=O)C1 (stereo partly shown) [Compound A, N-((1r,3r)-3-(3-chloro-4-cyanophenoxy)-2,2,4,4-tetramethylcyclobutyl)-2-(4-((((1r,3r)-3-((2-(2,6-dioxopiperidin-3-yl)-1,3-dioxoisoindolin-5-yl)oxy)cyclobutyl)(isopropyl)amino)methyl)piperidin-1-yl)pyrimidine-5-carboxamide]
reduction of monomeric hAR100Q (polyQ-AR) in LABC vs vehicle (human AR100Q [1]; LABC, 11 weeks of age, chow approx. 15 mg/kg): 70% | reduction of polyQ-AR (hAR100Q) in quadriceps (human AR100Q [1]; quadriceps): 43% | AR/polyQ-AR degraded in the quadriceps muscle (human AR100Q [1]; quadriceps, AR and polyQ-AR together): 40-60% | reduction of high molecular weight (aggregated) hAR100Q in LABC (human AR100Q [2]; LABC, 11 weeks of age): did not induce degradation; also recorded: did not reach significance | reduction of high molecular weight polyQ-AR (HMW hAR100Q) in quadriceps (human AR100Q [2]; quadriceps): trended towards a reduction | DC50 (polyQ-AR): 0.6 to 0.8 nM | Dmax, polyQ-AR in SBMA hiPSC-myotubes (polyQ-AR): 83-96%
